From ChEMBL document CHEMBL5523671, “ω-(5-Phenyl-2H-tetrazol-2-yl)alkyl-substituted glycine amides and related compounds as inhibitors of the amine oxidase vascular adhesion protein-1 (VAP-1)” (Bioorg Med Chem, 2024)
Calls of active or inactive are those of the source. The calls are words filed in the database; no cut-off is given here.

Experiments:
[1] = molecular target: T1, Amine oxidase [copper-containing] 3 (Bos taurus, UniProt Q9TTK6); test: Inhibition of bovine plasma VAP-1 using 6-(5-Pheny1-2H-tetrazol-2-yl)hexan-1-amine as substrate preincubated with enzyme for 15 mins followed by substrate addition measured after 30 mins by UV-HPLC analysis; format: cell-free
T1 sequence (Q9TTK6 whole entry): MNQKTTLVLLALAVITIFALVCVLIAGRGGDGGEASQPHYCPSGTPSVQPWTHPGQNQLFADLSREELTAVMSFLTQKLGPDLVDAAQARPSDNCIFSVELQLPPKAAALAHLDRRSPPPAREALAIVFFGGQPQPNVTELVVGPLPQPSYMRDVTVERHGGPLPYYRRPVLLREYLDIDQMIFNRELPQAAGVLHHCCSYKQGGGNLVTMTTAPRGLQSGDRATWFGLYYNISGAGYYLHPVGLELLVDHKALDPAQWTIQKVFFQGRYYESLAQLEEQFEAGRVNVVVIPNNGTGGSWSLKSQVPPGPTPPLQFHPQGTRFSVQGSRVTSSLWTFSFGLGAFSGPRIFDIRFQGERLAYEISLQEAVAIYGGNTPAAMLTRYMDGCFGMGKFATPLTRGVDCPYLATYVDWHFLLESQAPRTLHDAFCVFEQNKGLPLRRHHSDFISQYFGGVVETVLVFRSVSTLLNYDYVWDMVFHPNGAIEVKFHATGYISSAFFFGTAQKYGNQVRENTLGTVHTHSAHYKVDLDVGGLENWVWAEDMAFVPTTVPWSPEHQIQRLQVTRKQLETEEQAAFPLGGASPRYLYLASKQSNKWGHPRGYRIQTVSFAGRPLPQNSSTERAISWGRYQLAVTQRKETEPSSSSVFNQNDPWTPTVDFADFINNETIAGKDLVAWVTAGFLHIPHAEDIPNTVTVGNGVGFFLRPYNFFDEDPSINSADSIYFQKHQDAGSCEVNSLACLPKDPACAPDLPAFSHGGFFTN

[2] = molecular target: T1, Amine oxidase [copper-containing] 3; test: Inhibition of bovine plasma VAP-1 using 6-(5-Pheny1-2H-tetrazol-2-yl)hexan-1-amine as substrate measured after 30 mins by UV-HPLC analysis; format: cell-free
[3] = molecular target: T2, Amine oxidase [copper-containing] 3 (Bos taurus) (UniProt Q9TTK6); test: Inhibition of bovine plasma VAP-1 using 6-(5-Pheny1-2H-tetrazol-2-yl)hexan-1-amine as substrate at 10 uM preincubated with enzyme for 15 mins followed by substrate addition measured after 30 mins by UV-HPLC analysis relative to control; format: cell-free; settings: time 45.0 min
T2 sequence (whole entry): T1 sequence (Q9TTK6 whole entry)

[4] = molecular target: T2, Amine oxidase [copper-containing] 3 (Bos taurus); test: Inhibition of bovine plasma VAP-1 using 6-(5-Pheny1-2H-tetrazol-2-yl)hexan-1-amine as substrate at 10 uM measured after 30 mins by UV-HPLC analysis relative to control; format: cell-free
[5] = molecular target: T3, VAP-1 (amine oxidase [copper-containing] 3) (Bos taurus, UniProt Q9TTK6); test: Stability of compound assessed as bovine plasma VAP-1 mediated drug degradation by measuring parent compound remaining at 10 uM incubated for 15 mins by HPLC-MS analysis; format: ADME, cell-free; settings: cattle, bovine plasma VAP-1 (amine oxidase [copper-containing] 3), read-out: Stability
T3 sequence (Q9TTK6 whole entry): T1 sequence (Q9TTK6 whole entry)

[6] = molecular target: T3, VAP-1 (amine oxidase [copper-containing] 3); test: Stability of compound assessed as bovine plasma VAP-1 mediated drug degradation by measuring parent compound remaining at 10 uM incubated for 30 mins by HPLC-MS analysis; format: ADME, cell-free; settings: cattle, bovine plasma VAP-1 (amine oxidase [copper-containing] 3), read-out: Stability
[7] = molecular target: T3, VAP-1 (amine oxidase [copper-containing] 3); test: Stability of compound assessed as bovine plasma VAP-1 mediated drug degradation by measuring parent compound remaining at 10 uM incubated for 60 mins by HPLC-MS analysis; format: ADME, cell-free; settings: cattle, bovine plasma VAP-1 (amine oxidase [copper-containing] 3), read-out: Stability
[8] = molecular target: T3, VAP-1 (amine oxidase [copper-containing] 3); test: Stability of compound assessed as bovine plasma VAP-1 mediated drug degradation by measuring parent compound remaining at 10 uM incubated for 120 mins by HPLC-MS analysis; format: ADME, cell-free; settings: cattle, bovine plasma VAP-1 (amine oxidase [copper-containing] 3), read-out: Stability
[9] = molecular target: T3, VAP-1 (amine oxidase [copper-containing] 3); test: Stability of compound assessed as bovine plasma VAP-1 mediated drug degradation by measuring parent compound remaining at 1 uM incubated for 15 mins by HPLC-MS analysis; format: ADME, cell-free; settings: cattle, bovine plasma VAP-1 (amine oxidase [copper-containing] 3), read-out: Stability
[10] = molecular target: T3, VAP-1 (amine oxidase [copper-containing] 3); test: Stability of compound assessed as bovine plasma VAP-1 mediated drug degradation by measuring parent compound remaining at 1 uM incubated for 30 mins by HPLC-MS analysis; format: ADME, cell-free; settings: cattle, bovine plasma VAP-1 (amine oxidase [copper-containing] 3), read-out: Stability
[11] = molecular target: T3, VAP-1 (amine oxidase [copper-containing] 3); test: Stability of compound assessed as bovine plasma VAP-1 mediated drug degradation by measuring parent compound remaining at 1 uM incubated for 60 mins by HPLC-MS analysis; format: ADME, cell-free; settings: cattle, bovine plasma VAP-1 (amine oxidase [copper-containing] 3), read-out: Stability
[12] = molecular target: T3, VAP-1 (amine oxidase [copper-containing] 3); test: Stability of compound assessed as bovine plasma VAP-1 mediated drug degradation by measuring parent compound remaining at 1 uM incubated for 120 mins by HPLC-MS analysis; format: ADME, cell-free; settings: cattle, bovine plasma VAP-1 (amine oxidase [copper-containing] 3), read-out: Stability
[13] = molecular target: T4, Amine oxidase [copper-containing] 3 (Homo sapiens, UniProt Q16853); test: Inhibition of human plasma VAP-1 using 6-(5-Pheny1-2H-tetrazol-2-yl)hexan-1-amine as substrate preincubated with enzyme for 15 mins followed by substrate addition measured after 120 mins by UV-HPLC analysis; format: cell-free
T4 sequence (Q16853 whole entry): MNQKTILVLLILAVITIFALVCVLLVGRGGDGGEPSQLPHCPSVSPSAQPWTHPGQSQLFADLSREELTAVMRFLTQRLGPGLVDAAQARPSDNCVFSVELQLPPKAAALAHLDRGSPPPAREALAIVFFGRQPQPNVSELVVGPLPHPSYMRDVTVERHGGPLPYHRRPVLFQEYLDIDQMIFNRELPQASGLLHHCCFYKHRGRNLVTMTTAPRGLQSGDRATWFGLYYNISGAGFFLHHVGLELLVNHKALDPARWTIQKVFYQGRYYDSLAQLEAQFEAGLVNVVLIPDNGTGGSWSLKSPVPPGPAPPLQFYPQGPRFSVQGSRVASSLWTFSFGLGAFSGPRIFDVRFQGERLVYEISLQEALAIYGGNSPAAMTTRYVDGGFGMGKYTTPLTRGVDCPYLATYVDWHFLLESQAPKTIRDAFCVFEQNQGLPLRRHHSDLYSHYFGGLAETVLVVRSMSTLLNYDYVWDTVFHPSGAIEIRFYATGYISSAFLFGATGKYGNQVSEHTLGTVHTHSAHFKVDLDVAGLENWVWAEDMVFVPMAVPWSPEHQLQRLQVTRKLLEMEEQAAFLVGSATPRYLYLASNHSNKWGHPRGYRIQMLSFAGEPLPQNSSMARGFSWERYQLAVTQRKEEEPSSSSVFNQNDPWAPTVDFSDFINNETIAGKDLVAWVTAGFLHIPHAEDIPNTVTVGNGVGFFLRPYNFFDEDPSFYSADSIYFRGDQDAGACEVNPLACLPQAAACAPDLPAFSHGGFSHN

[14] = Selectivity index, ratio of IC50 for human plasma VAP-1 to IC50 for bovine plasma VAP-1
[15] = Selectivity index, ratio of IC50 for porcine kidney DAO to IC50 for bovine plasma VAP-1
[16] = molecular target: T1, Amine oxidase [copper-containing] 3; test: Stability of compound assessed as bovine plasma VAP-1 mediated drug degradation by measuring formation of aldehyde metabolite at 1 to 10 uM incubated for 60 to 120 mins by HPLC-MS analysis; format: ADME, cell-free; settings: cattle, dose lower 1 µM, time lower 60 min, dose upper 10 µM, time upper 120 min

SMILES | IC50 [1] [µM] | IC50 [2] [µM] | inhibition [3] | inhibition [4] | also measured
NCC(=O)NCCCCCCn1cnc(-c2ccccc2)c1 | > 10 | > 10 | 33% | 41% | 
COc1ccc(-c2nnn(CCCCCCNC(=O)CN)n2)cc1 | 6.3 | 6.2 |  |  | 
COC(=O)c1ccc(-c2nnn(CCCCCCNC(=O)CN)n2)cc1 | 6.1 | 7.3 |  |  | 
NCC(=O)NCCCCCCn1nnc(-c2ccccn2)n1 | > 10 | > 10 | 49% | 40% | 
NCC(=O)Nc1ccc(CCn2nnc(-c3ccccc3)n2)cc1 | > 10 | > 10 | 18% | 20% | 
NCC(=O)NC1CCC(CCn2nnc(-c3ccccc3)n2)CC1 (stereo not drawn) |  |  | inactive | inactive | 
NCC(=O)NCc1ccccc1Cn1nnc(-c2ccccc2)n1 | > 10 | > 10 | 18% | 30% | remaining at 0.25 h, 10 µM [5]: 91%; remaining at 0.5 h, 10 µM [6]: 86%; remaining at 1 h, 10 µM [7]: 84%; remaining at 2 h, 10 µM [8]: 56%
NCC(=O)NCCCCCCn1nnc(-c2ccc(C(=O)O)cc2)n1 |  |  | inactive | inactive | 
CN(Cc1cccc(Cn2nnc(-c3ccccc3)n2)c1)C(=O)CN | > 10 | > 10 | 49% | 43% | remaining at 0.25 h, 10 µM [5]: 95%; remaining at 0.5 h, 10 µM [6]: 85%; remaining at 1 h, 10 µM [7]: 65%; remaining at 2 h, 10 µM [8]: 45%; IC50 [13]: 20 µM; Ratio IC50 [14]: 2
NCC(=O)NCCCCCCCn1nnc(-c2ccccc2)n1 | 6.6 | 5.7 |  |  | 
NCC(=O)NCCCn1nnc(-c2ccccc2)n1 | > 10 | > 10 | 29% | 13% | 
NCC(=O)NCCCCCCn1cc(-c2ccccc2)cn1 | 7.9 | 6.9 |  |  | 

Continued, in another order:

IC50 [1] [µM] | IC50 [2] [µM] | inhibition [3] | inhibition [4] | SMILES | also measured
5.4 | 6.2 |  |  | NCC(=O)NCCCCCCn1nnc(-c2ccncc2)n1 | 
4.8 | 3.1 |  |  | NCC(=O)NCCCCCCCCn1nnc(-c2ccccc2)n1 | 
4.3 | 3.5 |  |  | NCC(=O)NCCCCCCn1nnc(-c2ccc(Cl)cc2)n1 | 
0.16 | 0.37 |  |  | Cl.NCC(=O)NCc1cccc(Cn2nnc(-c3ccccc3)n2)c1 | remaining at 0.25 h, 10 µM [5]: > 95%; remaining at 0.5 h, 10 µM [6]: > 95%; remaining at 1 h, 10 µM [7]: 93%; remaining at 2 h, 10 µM [8]: 84%; remaining at 0.25 h, 1 µM [9]: 73%; remaining at 0.5 h, 1 µM [10]: 47%; remaining at 1 h, 1 µM [11]: < 5%; remaining at 2 h, 1 µM [12]: < 5%; IC50 [13]: 2.1 µM; Ratio IC50 [14]: 2; Ratio IC50 [15]: 50; Stability [16]: Stable
5.1 | 4.7 |  |  | Cc1ccc(-c2nnn(CCCCCCNC(=O)CN)n2)cc1 | 
